PMC5766630, “Non-estrogenic Xanthohumol Derivatives Mitigate Insulin Resistance and Cognitive Impairment in High-Fat Diet-induced Obese Mice” (Scientific Reports, 2018)

Key:
[1] = target: T1, full-length purified human estrogen receptor ERα (Homo sapiens, UniProt P03372); experiment: ERα competitive radiometric binding assay; conditions: RBA = IC50[estradiol]/IC50[compound] × 100, estradiol = 100; 2 nM [3H]-estradiol tracer, 18–24 h at 0 °C
T1 construct: full-length purified human estrogen receptors ERα and ERβ
T1 sequence (P03372 1-595): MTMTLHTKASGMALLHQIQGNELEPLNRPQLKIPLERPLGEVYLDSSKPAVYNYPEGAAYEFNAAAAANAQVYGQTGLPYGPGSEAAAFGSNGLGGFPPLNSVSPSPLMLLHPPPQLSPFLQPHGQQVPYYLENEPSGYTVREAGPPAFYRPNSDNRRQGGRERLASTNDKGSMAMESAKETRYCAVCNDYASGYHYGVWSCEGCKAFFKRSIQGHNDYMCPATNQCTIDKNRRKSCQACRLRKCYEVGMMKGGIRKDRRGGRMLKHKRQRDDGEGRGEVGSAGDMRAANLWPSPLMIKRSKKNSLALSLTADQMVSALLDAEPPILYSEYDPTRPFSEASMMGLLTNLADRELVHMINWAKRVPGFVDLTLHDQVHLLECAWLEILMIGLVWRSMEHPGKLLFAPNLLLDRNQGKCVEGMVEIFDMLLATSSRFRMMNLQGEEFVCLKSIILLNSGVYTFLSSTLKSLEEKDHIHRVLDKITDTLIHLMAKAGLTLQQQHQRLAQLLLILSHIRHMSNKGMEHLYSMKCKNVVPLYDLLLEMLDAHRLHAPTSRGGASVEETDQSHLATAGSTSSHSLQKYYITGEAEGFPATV
Method: The receptors and ligands were incubated for 18–24 h at 0 °C and then the receptor–ligand complexes separated using hydroxyapatite (BioRad, Hercules, CA, USA).

[2] = test system: C57BL/6J mice fed a high-fat diet; experiment: Water maze: spatial learning and memory; format: in vivo, mouse; conditions: for Reached platform location faster than control (latency to first cross), probe trial: probe trial 24 h after last hidden platform trial; for Number of mice that spent more time in the correct quadrant than in any other quadrant / Number of mice that reached the platform location within 35 seconds: probe trial; for Number of mice that spent more time in the correct quadrant than in any other quadrant: control 3 out of 12; for Number of mice that reached the platform location within 35 seconds: control 5 out of 12; for Number of mice that reached the hidden platform at least twice within 50 seconds: trials 6 to 8, control 3 out of 12
Method: After 13 weeks of feeding the experimental diets, general task learning, spatial learning and memory, and long-term spatial memory retention were tested using the water maze, as previously described[97],[98]. Briefly, the water maze consisted of a circular pool, filled with water (24 °C) made opaque white with non-toxic tempera paint (Prang, Dixon Ticonderoga Company, Heathrow, FL, USA). Spatial cues consisted of figures of geometric shape and other items such as toys and pieces of cloth. The cues were placed on the walls of both the room and the sides of the tank and were present throughout all water maze trials. All trials consisted of a maximum of 60 s in the water searching for the platform and 10 s on the platform. […] Trials on the same day were separated by 10 min. Mice were first trained to locate a visible escape platform (plexiglass circle, 12 cm diameter) submerged 2 cm below the surface of the water, by the use of a cue (a colored cylinder, 2.5 cm radius, 8 cm height) during the visible platform trials (1–2). The location of the platform during visible platform trials was moved between trials to avoid procedural biases in task learning to a specific quadrant. Subsequent to the visible platform training, mice were trained to locate the platform without a visible cue during the hidden platform trials (3–8), which required the mice to rely on extra-maze cues for spatial reference and orientation. To analyze learning curves, time to reach the platform (latency) and swim speeds were assessed. Spatial memory retention was assessed 24 h following the conclusion of the eighth trial of hidden platform training in the probe trial (no platform). For data analysis, the pool was divided conceptually into four quadrants. Time spent searching in the target quadrant compared to the time spent in the three non-target quadrants and the latency to the first crossing of the platform location were analyzed. Following the probe trial, mice were administered two additional visible platform trials. Thigmotaxis, a tendency to remain close the walls, is commonly used as an index of anxiety in mice. For thigmotaxis, we analyzed the time (%) mice spent swimming in the outer part of the pool (<10 cm from edge of pool) during the visible trials. Water maze performance was tracked and analyzed using Ethovision software set at 6 samples/s (Noldus Information Technology, Leesburg, VA). Heat map images were generated using EthoVision Heatmap Generator software and representative images were selected from mice closest to the group mean values for time spent in the quadrant target.
Water maze learning curves: data, except for spatial learning, were analyzed using a one-way ANOVA for single measures within animals and a repeated-measures-in-time design ANOVA for repeated measures within animals. To evaluate spatial learning, we first compared at each session the control versus each XN metabolite group. For further analysis of spatial learning, the first 3 sessions were used for training of spatial learning and the last 3 session for spatial learning. […] To show spatial learning, mice had to reach the platform during the last 3 evaluation sessions at least twice within 50 seconds. Fisher’s exact test was used to compare control versus each XN metabolite group.

[3] = test system: skeletal muscle AMPK (pAMPKα/total AMPKα); experiment: AMPK activation in skeletal muscle by Western blot; format: in vivo, mouse; conditions: HFD mice, 30 mg/kg/day, 13 weeks, vs control
Method: Approximately 150 mg of frozen liver and muscle tissues were homogenized in tubes containing RIPA buffer with protease and phosphatase inhibitors plus ceramic beads (1.4 mm Ceramic, Bulk Beads, Fisher Scientific, Pittsburgh, PA, USA) using a Precellys 24 (PEQLAB Biotechnology GmbH, Germany). Liver tissue was homogenized for 1 × 30 sec at 6,500 rpm whereas muscle was homogenized for 3 × 30 sec at 6,500 rpm with 20 sec intervals. The homogenates were centrifuged at 15,700 × g for 10 minutes and aliquots (50 µg of protein) of the supernatant (lysate) were separated by SDS-PAGE using 4–15% MP TGX Gels (Bio-Rad # 4561083) and blotted onto nitrocellulose membranes. Membranes were blocked with 5% nonfat milk for 2 h and incubated with antibodies against pAMPK (Phospho-AMPKα (Thr172) Antibody, cat. no. #2531 Cell Signaling Technology, Danvers, MA, USA), AMPK (AMPKα Antibody, cat. no. #2532 Cell Signaling Technology, Danvers, MA, USA), or β-actin (Santa Cruz Biotechnology) for 1 h or overnight. After a second reaction with secondary antibodies (horseradish peroxidase-conjugated IgG goat antirabbit or goat antimouse antibodies), the protein bands on the nitrocellulose membranes were visualized by enhanced chemiluminescence substrate on a Biorad ChemiDocTM MP Imaging System (BioRad Laboratories Inc, Hercules, CA, USA). Band intensities were quantified by densitometry using Image J software.

Compound	RBA ERα (relative binding affinity) [1]	Slower swim speed versus HFD only ([2]; during the hidden platform trials)	Reached hidden platform faster than HFD only, average of trials 6 to 8 ([2]; hidden platform)	Reached platform location faster than control (latency to first cross), probe trial [2]	Number of mice that spent more time in the correct quadrant than in any other quadrant [2]	Number of mice that reached the platform location within 35 seconds [2]	Number of mice that reached the hidden platform at least twice within 50 seconds [2]	Decrease of skeletal muscle AMPK activation (pAMPK/AMPK) [3]	Reached hidden platform faster than HFD only, trial 6 ([2]; hidden platform)	Reached hidden platform faster than HFD only, trial 8 ([2]; hidden platform)	Reached hidden platform faster than HFD only, first hidden platform trial (trial #3) ([2]; hidden platform trial 3)	Reached visible platform faster than control, first trial ([2]; visible platform trial 1, HFD mice, 30 mg/kg/day, 13 weeks)	More time in the correct (Target) quadrant than control ([2]; 60-s probe trial)	Reached hidden platform faster than HFD only, trial 7 ([2]; hidden platform)
COc1cc(O)c(CC=C(C)C)c(O)c1C(=O)CCc1ccc(O)cc1 [DXN, α,β-Dihydroxanthohumol]	0.0029 ± 0.0007	10%	28%	58%	9 out of 12	all but one	9 out of 12	22%						
COc1cc(O)c(CCC(C)C)c(O)c1C(=O)CCc1ccc(O)cc1 [TXN, tetrahydroxanthohumol]	0.0033 ± 0.001		45%	45%	all but one	all but one	all	25%	44%	35%	18%	24%		
COc1cc(O)c(CC=C(C)C)c(O)c1C(=O)/C=C/c1ccc(O)cc1 [XN, 3′-[3,3-dimethylallyl]-2′,4′,4-trihydroxy-6′-methoxychalcone]	0.0021 ± 0.0003			45%	all but one	all but one	all	19%	47%	49%			6.8%	43%
